The values that follow are results of earlier work, collected in patent US20090060993A1, “SOLID PHARMACEUTICAL COMPOSITION FOR ENHANCED DELIVERY OF COENZYME Q-10 AND UBIQUINONES” (priority 2007, published 2009).

Structures are written as SMILES.

The conditions of the series: humans.

As to `COC1=C(OC)C(=O)C(C/C=C(\C)CC/C=C(\C)CC/C=C(\C)CC/C=C(\C)CC/C=C(\C)CC/C=C(\C)CC/C=C(\C)CC/C=C(\C)CC/C=C(\C)CCC=C(C)C)=C(C)C1=O` [coenzyme Q-10, ubidecarenone], the total absorption entry is listed as “less than 10%”.
